As a reminder, the inhibition is the change of the read-out against control, counted positive when it falls.

The source of these data is ChEMBL document CHEMBL1133235, “Kinetic characterisation of ene-diol-based inhibitors of alpha-amylase” (Bioorg Med Chem Lett, 2000).

In the assay the test system is alpha-amylase (Hordeum vulgare). As to the kind of experiment: Percent inhibition of Alpha-amylase activity was determined at 5 mM. Particulars: malt.

In turn, `O=C(O)/C(O)=C(\O)C(=O)O` registered an inhibition of 92%.
